Data as given in article PMC11002876, “KcsA-Kv1.x chimeras with complete ligand-binding sites provide improved predictivity for screening selective Kv1.x blockers” (The Journal of Biological Chemistry, 2024).
Where a SMILES comes first, the peptide text is derived from it.

Molecular target: T1, KcsA-Kv1.1 T+F chimera (Streptomyces lividans, UniProt P0A334, R52A/G53E/A54E/P55A/G56E/A57S/Q58H/L59F/I60S/T61S/Y62I/R64D/L81M)
T1 sequence (P0A334 1-160 R52A/G53E/A54E/P55A/G56E/A57S/Q58H/L59F/I60S/T61S/Y62I/R64D/L81M): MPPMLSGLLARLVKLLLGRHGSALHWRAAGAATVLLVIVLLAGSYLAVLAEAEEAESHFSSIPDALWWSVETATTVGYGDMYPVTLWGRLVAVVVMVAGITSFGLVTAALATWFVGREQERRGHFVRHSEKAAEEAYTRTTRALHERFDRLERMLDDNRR
Test: Phage ELISA-binding assay, KcsA-Kv1.1 T+F
Set-up: species or system human Kv1.1 turret and filter in Streptomyces lividans KcsA
Settings: toxin displayed on M13 phage; Fig. 8D
Protocol: Phage display test solutions were prepared according to routine phage display protocols ([62]). Phosphorylated and annealed oligonucleotides encoding the peptide construct were ligated into linearized pAS62 phagemid vector (https://patents.google.com/patent/WO2022144560A1/en) at a vector/insert ratio of 1:3. The final phagemid construct harbored a signal sequence followed by the peptide of interest, a linker sequence ([…]), and the C-terminal part of the P3 coat protein (amino acids: 216-424 of NP_510891.1). Chemically competent XL1-Blue E. coli cells (2022249, Agilent) were transformed with the ligation product and then streaked onto ampicillin (100 μg/ml) containing LB/Amp plates and incubated for 16 h at 37 °C. A few clones were sequenced, and a single colony with confirmed target sequence was inoculated into 3 ml 2 YT medium supplemented with 100 μg/ml ampicillin and incubated at 37 °C until the culture reached midlog phase. The culture was infected with M13KO7 helper phage (N0315S, New England Biolabs) (phage/cell ratio 10:1) and was incubated for 30 min at 37 °C. The 3 ml culture was transferred into 200 ml 2YT medium, supplemented with 100 μg/ml ampicillin and 25 μg/ml kanamycin, and incubated overnight at 37 °C. The overnight cell culture (200 ml) was pelleted by centrifugation at 8000g for 10 min in 400 ml centrifuge tubes at 4 °C. […] The particle concentrations of phage solutions were determined using a NanoDrop One C (Thermo Fisher Scientific) spectrophotometer. The phage particle concentration was assessed according to the formula: (A268–A320) × 5 × 10^12 particles/ml ([62]). […]
Phage stock solutions were diluted to working concentration with phage resuspension buffer supplemented with 2 mM DDM. […] Following blocking, the wells were washed 4× with washing buffer (300 μl TBS-Tween, 0.1% v/v) using a Wellwash Versa microplate washer (Thermo Fisher Scientific); then 50 μl phage solution (in TBS-BSA-Tween, 0.1% v/v, 2 mM DDM) at determined phage concentration was added to the wells and incubated for 1 h at room temperature on a horizontal shaker. […]

Structure (SMILES)	phage binding to KcsA-Kv1.1 T+F, in words
CC[C@H](C)[C@@H]1NC(=O)[C@@H]2CSSC[C@H](NC(=O)[C@H](CO)NC(=O)[C@@H](N)C(C)C)C(=O)N[C@@H]([C@@H](C)O)C(=O)NCC(=O)N[C@@H](CO)C(=O)N[C@@H](CCCCN)C(=O)N[C@@H](CC(=O)O)C(=O)N[C@@H](CSSC[C@@H](C(=O)N[C@@H](CCCCN)C(=O)N[C@H]3CSSC[C@@H](C(N)=O)NC(=O)CNC(=O)[C@H](Cc4ccc(O)cc4)NC3=O)NC(=O)[C@H](CO)NC(=O)[C@H](CCCCN)NC(=O)[C@H](CC(N)=O)NC1=O)C(=O)N[C@@H](Cc1ccc(O)cc1)C(=O)N[C@@H](C)C(=O)N1CCC[C@H]1C(=O)N[C@H]1CSSC[C@H](NC(=O)CNC(=O)[C@H]([C@@H](C)O)NC(=O)[C@H](CCC(N)=O)NC(=O)[C@H](CCCCN)NC(=O)[C@H](CCCNC(=N)N)NC1=O)C(=O)N1CCC[C@H]1C(=O)N[C@@H](CC(N)=O)C(=O)N[C@@H](C)C(=O)N[C@@H](CCCCN)C(=O)N2 [MTX, Maurotoxin] (HELM PEPTIDE1{V.S.C.T.G.S.K.D.C.Y.A.P.C.R.K.Q.T.G.C.P.N.A.K.C.I.N.K.S.C.K.C.Y.G.C.[am]}$PEPTIDE1,PEPTIDE1,3:R3-24:R3|PEPTIDE1,PEPTIDE1,9:R3-29:R3|PEPTIDE1,PEPTIDE1,13:R3-19:R3|PEPTIDE1,PEPTIDE1,31:R3-34:R3$$$V2.0; N-terminus and C-terminus assumed)	negligible binding
CC[C@H](C)[C@H](NC(=O)[C@H](CCC(=O)O)NC(=O)[C@@H](NC(=O)CN)C(C)C)C(=O)N[C@@H](CC(N)=O)C(=O)N[C@H](C(=O)N[C@@H](CCCCN)C(=O)N[C@H]1CSSC[C@@H]2NC(=O)[C@H](CCCCN)NC(=O)CNC(=O)[C@H](Cc3ccccc3)NC(=O)[C@H](CCCNC(=N)N)NC(=O)[C@H](CCSC)NC(=O)CNC(=O)[C@H](C)NC(=O)[C@H](CC(=O)O)NC(=O)[C@H](CCCCN)NC(=O)[C@@H]3CSSC[C@@H](C(=O)N[C@H](C(=O)N4CCC[C@H]4C(=O)N[C@@H](CCCCN)C(=O)O)[C@@H](C)O)NC(=O)[C@H](Cc4c[nH]cn4)NC(=O)[C@H](CSSC[C@H](NC(=O)[C@H](CCC(N)=O)NC(=O)[C@@H]4CCCN4C(=O)[C@H](CO)NC(=O)CNC(=O)[C@H](CO)NC1=O)C(=O)N[C@@H](CC(C)C)C(=O)N[C@@H](CCCCN)C(=O)N1CCC[C@H]1C(=O)N3)NC(=O)[C@H](CCCCN)NC(=O)[C@H](CCCNC(=N)N)NC(=O)[C@H](CC(N)=O)NC(=O)[C@H](CCSC)NC2=O)C(C)C [KTX1, Kaliotoxin-1]	ShK > KTX1
CC[C@H](C)[C@@H]1NC(=O)[C@@H](NC(=O)[C@H](CO)NC(=O)[C@@H](N)CCCNC(=N)N)CSSC[C@@H](C(=O)O)NC(=O)[C@H]([C@@H](C)O)NC(=O)CNC(=O)[C@@H]2CSSC[C@@H]3NC(=O)[C@H](CCC(N)=O)NC(=O)[C@H](Cc4ccccc4)NC(=O)[C@H](C)NC(=O)[C@H]([C@@H](C)O)NC(=O)[C@H](CSSC[C@H](NC(=O)[C@H](Cc4ccccc4)NC(=O)[C@H](CO)NC(=O)[C@H](CC(C)C)NC(=O)[C@H](CCCNC(=N)N)NC(=O)[C@H](Cc4ccc(O)cc4)NC(=O)[C@H](CCCCN)NC(=O)[C@H](CCSC)NC(=O)[C@H](CO)NC(=O)[C@H](Cc4c[nH]cn4)NC(=O)[C@H](CCCCN)NC3=O)C(=O)N[C@@H](CCCNC(=N)N)C(=O)N[C@@H](CCCCN)C(=O)N[C@@H]([C@@H](C)O)C(=O)N2)NC(=O)[C@H](CCCNC(=N)N)NC(=O)[C@H](CO)NC(=O)[C@H](CCCCN)NC(=O)[C@@H]2CCCN2C(=O)[C@H]([C@@H](C)CC)NC(=O)[C@H]([C@@H](C)O)NC(=O)[C@H](CC(=O)O)NC1=O [ShK, Stichodactyla toxin]	ShK > KTX1
